From PubChem BioAssay (NCI)
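Exposure lasted 48 hours, with cells grown in 96-well plates and compounds tested at five concentrations. At the GI50, growth is halved. The concentration for full growth arrest is given as TGI.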

Assays:
Assay in all cases: NCI tumour cell line growth inhibition, 48 h
[1] = test system: PC-3 prostate
[2] = test system: SNB-19 CNS
[3] = test system: EKVX NSCLC
[4] = test system: MOLT-4 leukemia
[5] = test system: SF-268 CNS
[6] = test system: T-47D breast
[7] = test system: RPMI-8226 leukemia
[8] = test system: SN12C renal
[9] = test system: HT29 colon
[10] = test system: LOX IMVI melanoma

Row | Compound | GI50 [1] | TGI [1] | GI50 [2] | TGI [2] | GI50 [3] | TGI [3] | GI50 [4] | TGI [4] | GI50 [5] | TGI [5] | GI50 [6] | TGI [6] | GI50 [7] | TGI [7] | GI50 [8] | TGI [8] | GI50 [9] | TGI [9] | GI50 [10] | TGI [10]
1 | Cc1cn2c(/C=C3\C(=O)N(C)c4ccc(O)cc43)c(C)nc2s1 | 7.46 µM | > 100 µM | 3.64 µM | 39.1 µM | 14.8 µM | > 100 µM | 4.71 µM | 34.7 µM | 9.08 µM | > 100 µM | 4.48 µM | 64.5 µM | 5.98 µM | > 100 µM | 18.3 µM | > 100 µM | 3.12 µM | 18.4 µM | 7.51 µM | > 100 µM
2 | CC(C)S(=O)(=O)c1ccccc1Nc1nc(Nc2cccc(NC(=O)CN)c2)ncc1Cl | 0.308 µM | 5.9 µM | 0.251 µM | 10.1 µM | 1.5 µM | 10.1 µM | 0.231 µM | 2.14 µM | 0.189 µM | 1.3 µM | 0.586 µM | 4.68 µM | 0.254 µM | 2.41 µM | 0.21 µM | 6.66 µM | 0.183 µM | 2.83 µM | 0.0384 µM | 0.258 µM
3 | COc1cc2c(cc1O)C1Cc3ccc(OC)c(O)c3C(C2)N1C (stereo not given) | – | > 100 µM | – | > 100 µM | – | > 100 µM | – | > 100 µM | – | > 100 µM | – | > 100 µM | – | > 100 µM | – | > 100 µM | – | > 100 µM | – | > 100 µM
4 | Cc1cc(N/N=C/c2nc(-c3ccc(Br)cc3)oc2C)c2cc(Br)ccc2n1 | 2.68 µM | 8.75 µM | 3.87 µM | 23.4 µM | 19.3 µM | 38.5 µM | 2.65 µM | > 100 µM | 6.89 µM | 46.2 µM | 1.88 µM | 3.9 µM | 2.37 µM | 6.39 µM | 2.1 µM | 5.36 µM | 3.14 µM | 13.7 µM | 1.99 µM | 4.3 µM
5 | NC(CS/C(Cl)=C/Cl)C(=O)O (stereo not given) | 34.3 µM | > 100 µM | 30.7 µM | > 100 µM | 31.7 µM | > 100 µM | 41.9 µM | > 100 µM | > 76.5 µM | > 100 µM | 2.68 µM | 15.2 µM | 12.5 µM | 74.5 µM | 43.3 µM | > 100 µM | 54.7 µM | > 100 µM | 1.02 µM | 4.34 µM
6 | COc1ccc(C(=O)COc2cccc(/C=C3\Oc4ccc5ccccc5c4C3=O)c2)cc1 | 1.54 µM | 3.23 µM | 15.5 µM | 29.4 µM | 14.4 µM | 42.8 µM | 2.85 µM | 21.6 µM | 3.72 µM | 14 µM | 1.98 µM | 5.6 µM | 0.345 µM | 2.01 µM | 1.76 µM | 3.85 µM | 6.92 µM | 44.6 µM | 1.56 µM | 3.08 µM
7 | C=CCSS/C=C/CS(=O)CC=C (stereo not given) | – | > 100 µM | – | > 100 µM | – | > 100 µM | – | > 29.5 µM | – | 60.7 µM | – | > 100 µM | – | 48.8 µM | – | > 65.9 µM | – | > 74.6 µM | – | 29.9 µM
8 | COc1ccc2[nH]c3c4c(ccc3c2c1)C(=O)C=CC4=O | – | 33.8 µM | – | > 79.1 µM | – | 29.9 µM | – | 3.1 µM | – | 36.1 µM | – | 9.75 µM | – | 10.4 µM | – | 24.4 µM | – | 46.9 µM | – | 24.1 µM
9 | CC1CCC(=O)C(C(=O)CC2CC(=O)NC(=O)C2)C1 (stereo not given) | – | > 100 µM | – | > 100 µM | – | > 100 µM | – | > 100 µM | – | > 100 µM | – | > 100 µM | – | > 100 µM | – | > 100 µM | – | > 100 µM | – | > 100 µM
10 | O=C(Nc1ccc(CO)cc1)c1coc2ccccc2c1=O | > 100 µM | > 100 µM | > 100 µM | > 100 µM | > 100 µM | > 100 µM | > 100 µM | > 100 µM | > 100 µM | > 100 µM | > 100 µM | > 100 µM | 84.8 µM | > 100 µM | > 100 µM | > 100 µM | > 100 µM | > 100 µM | > 100 µM | > 100 µM
11 | COc1ccc2ncn(-c3cc(O[C@H](C)c4ccccc4Cl)c(C(N)=O)s3)c2c1 | 0.0733 µM | > 25 µM | 0.0814 µM | > 25 µM | 0.183 µM | > 25 µM | 0.0122 µM | > 10.5 µM | 0.0316 µM | > 25 µM | 1.07 µM | 8.3 µM | 0.016 µM | 8.71 µM | 0.954 µM | > 25 µM | 0.00813 µM | 9.13 µM | 0.028 µM | 4.83 µM
12 | COc1ccc2c(c1)[C@@]13CCCC[C@H]1[C@@H](C2)N(C)CC3=O | – | 29 µM | – | > 100 µM | – | 43.4 µM | – | > 100 µM | – | 35.8 µM | – | 33.2 µM | – | 96.8 µM | – | 50.4 µM | – | 37.5 µM | – | 30.9 µM
13 | N#CC(=NCCO)C1=C(O)c2ccccc2C1=O | – | > 100 µM | – | > 100 µM | – | > 100 µM | – | > 100 µM | – | > 100 µM | – | > 100 µM | – | > 100 µM | – | > 100 µM | – | > 100 µM | – | > 100 µM
14 | CCOC(=O)c1c[nH]c2oc(/C=N/N3CC(CN4CCOCC4)OC3=O)cc2c1=O (stereo not given) | – | > 100 µM | – | > 100 µM | – | > 100 µM | – | > 100 µM | – | > 100 µM | – | > 100 µM | – | > 100 µM | – | > 100 µM | – | > 100 µM | – | > 100 µM
15 | COCCOc1cnc2ccn([C@H](C)c3nnc4c(F)cc(-c5cnn(C)c5)cn34)c(=O)c2c1 | > 100 µM | > 100 µM | > 100 µM | > 100 µM | > 100 µM | > 100 µM | > 100 µM | > 100 µM | > 100 µM | > 100 µM | > 100 µM | > 100 µM | > 100 µM | > 100 µM | > 100 µM | > 100 µM | > 100 µM | > 100 µM | > 100 µM | > 100 µM
